Values quoted from earlier work in patent US4127527A, “Novel pentadecapeptides, intermediates therefor, and compositions and methods employing said pentadecapeptides” (priority 1977, dated 1978).

Tests used:
rat = conditions: injected directly into the brain of the rat; Belluzzi et al., Nature 260, 625 (1976)
[1] = system: brain opiate receptor sites; conditions: natural peptide; Bradbury et al., Nature 260, 793 (1976)

Substance: H-Tyr-Gly-Gly-Phe-Met-OH [methionine enkephalin]
- analgesic activity (rat): only weak analgesic agent of short duration
- binding to partially purified brain opiate receptor sites [1]: binds stereo-specifically
